Laboratory results as given in patent US20210169958A1, “Preparation Method of Agrocybe Aegerita Extract and its use in Preparing Medicine for Lowering Uric Acid” (Guangdong Institute of Microbiology (Guang Dong Detection …, priority 2018, published 2021).

Legend:
hyperuricemia mice [1] = assay: Serum uric acid level in potassium oxonate + hypoxanthine hyperuricemia mice; format: in vivo, Kunming mice; settings: 7 days, normal 196, model 313 μmol/L
Procedure: (§1) Except for the normal control group by intraperitoneal injection and intragastric administration of distilled water, the other groups were intraperitoneally injected with oxazine potassium salt at a dose of 100 mg/kg/d, and simultaneously intragastrically with a dose of 600 mg/kg/d hypoxanthine for modeling. […] Low, middle, and high-dose Agrocybe aegerita water extract administration group (Agrocybe aegerita water extract, AAW) were respectively 50, 100, 200 mg/kg concentration of the Agrocybe aegerita water extract prepared in Example 2 100 mg/kg/d for intragastric administration. […] The blood samples were separated and the serum was stored at −20° C. The organs of the mice were removed, including the liver, spleen, and kidneys, and washed with physiological saline solution. Then blot it dry with an ordinary filter and weigh it. […] (8) Statistical analysis is performed using the professional data processing program SPSS (Release 11.5, SPSS Inc., 2001). All data are expressed as mean±standard error (S.D.) and analyzed by one-way analysis of variance (ANOVA), and group means were compared by two-tailed Student's t test. Differences with statistical significance (P<0.05 or P<0.01) are indicated by the following symbols: There is a differences from the normal control group: *P<0.05, **P<0.01. […]

[2] = test system: OAT1 (organic anion transporter 1); assay: Western blot of kidney samples, OAT1 protein expression; format: in vivo, mouse; settings: compared with the model group, each dose group
Procedure: Except for the normal control group by intraperitoneal injection and intragastric administration of distilled water, the other groups were intraperitoneally injected with oxazine potassium salt at a dose of 100 mg/kg/d, and simultaneously intragastrically with a dose of 600 mg/kg/d hypoxanthine for modeling. […] Low, middle, and high-dose Agrocybe aegerita water extract administration group (Agrocybe aegerita water extract, AAW) were respectively 50, 100, 200 mg/kg concentration of the Agrocybe aegerita water extract prepared in Example 2 100 mg/kg/d for intragastric administration. The normal control group and the hyperuricemia model control group were gavage with the same volume of pure water for 7 consecutive days, and in the 1, 3, 5, and 7 days to weigh the mice. […]
(7) Western blot analysis of kidney samples. Using GAPDH (glyceraldehyde-3-phosphate dehydrogenase) as an internal control, the expression of proteins including URAT1 (urate transporter 1) and OAT1 (organic anion transporter 1) were detected.
(§2) (8) Statistical analysis is performed using the professional data processing program SPSS (Release 11.5, SPSS Inc., 2001). All data are expressed as mean±standard error (S.D.) and analyzed by one-way analysis of variance (ANOVA), and group means were compared by two-tailed Student's t test. […]

hyperuricemia mice [3] = assay: Urine uric acid level in hyperuricemia mice; format: in vivo, Kunming mice; settings: normal 605, model 293 μmol/L
Procedure: as §1

[4] = Body weight change of mice; format: in vivo, Kunming mice; settings: compared with normal group, 7 days, all doses
Procedure: Except for the normal control group by intraperitoneal injection and intragastric administration of distilled water, the other groups were intraperitoneally injected with oxazine potassium salt at a dose of 100 mg/kg/d, and simultaneously intragastrically with a dose of 600 mg/kg/d hypoxanthine for modeling. […] Low, middle, and high-dose Agrocybe aegerita water extract administration group (Agrocybe aegerita water extract, AAW) were respectively 50, 100, 200 mg/kg concentration of the Agrocybe aegerita water extract prepared in Example 2 100 mg/kg/d for intragastric administration. […] (8) Statistical analysis is performed using the professional data processing program SPSS (Release 11.5, SPSS Inc., 2001). All data are expressed as mean±standard error (S.D.) and analyzed by one-way analysis of variance (ANOVA), and group means were compared by two-tailed Student's t test. Differences with statistical significance (P<0.05 or P<0.01) are indicated by the following symbols: There is a differences from the normal control group: *P<0.05, **P<0.01. There is a difference between the control and PO and HX-induced hyperuricemia model group, #P<0.05, ##P<0.01.

hyperuricemia mice [5] = assay: Kidney (renal) coefficient and kidney observation of mice; format: in vivo, Kunming mice
Procedure: (§3) Except for the normal control group by intraperitoneal injection and intragastric administration of distilled water, the other groups were intraperitoneally injected with oxazine potassium salt at a dose of 100 mg/kg/d, and simultaneously intragastrically with a dose of 600 mg/kg/d hypoxanthine for modeling. […] Low, middle, and high-dose Agrocybe aegerita water extract administration group (Agrocybe aegerita water extract, AAW) were respectively 50, 100, 200 mg/kg concentration of the Agrocybe aegerita water extract prepared in Example 2 100 mg/kg/d for intragastric administration. […] The blood samples were separated and the serum was stored at −20° C. The organs of the mice were removed, including the liver, spleen, and kidneys, and washed with physiological saline solution. Then blot it dry with an ordinary filter and weigh it. […] The supernatant was retained for XOD activity analysis and Western blot analysis. (8) Statistical analysis is performed using the professional data processing program SPSS (Release 11.5, SPSS Inc., 2001). All data are expressed as mean±standard error (S.D.) and analyzed by one-way analysis of variance (ANOVA), and group means were compared by two-tailed Student's t test. Differences with statistical significance (P<0.05 or P<0.01) are indicated by the following symbols: There is a differences from the normal control group: *P<0.05, **P<0.01. […]

hyperuricemia mice [6] = assay: Liver coefficient of mice; format: in vivo, Kunming mice; settings: all treatment groups
Procedure: as §3

hyperuricemia mice [7] = assay: Serum urea nitrogen (BUN) level, renal function of hyperuricemia mice; format: in vivo, Kunming mice; settings: allopurinol group; normal 4.47, model 5.96 mmol/L
Procedure: as §1

URAT1 = URAT1 expression in mouse kidney by ELISA kit; format: in vivo; settings: allopurinol group; normal 96.95, model 104.85 pg/mL
Procedure: Except for the normal control group by intraperitoneal injection and intragastric administration of distilled water, the other groups were intraperitoneally injected with oxazine potassium salt at a dose of 100 mg/kg/d, and simultaneously intragastrically with a dose of 600 mg/kg/d hypoxanthine for modeling. […] Low, middle, and high-dose Agrocybe aegerita water extract administration group (Agrocybe aegerita water extract, AAW) were respectively 50, 100, 200 mg/kg concentration of the Agrocybe aegerita water extract prepared in Example 2 100 mg/kg/d for intragastric administration. The normal control group and the hyperuricemia model control group were gavage with the same volume of pure water for 7 consecutive days, and in the 1, 3, 5, and 7 days to weigh the mice.
(4) Take the organs obtained in step (2) and calculate the organ coefficients (liver coefficient, spleen coefficient and kidney coefficient) by dividing […]. […]
as §2

Row | renal coefficient (hyperuricemia mice [5]; allopurinol group, normal 1.25%) [%] | kidney observation (hyperuricemia mice [5]; not observed in other groups) | liver coefficient, effect on liver function (hyperuricemia mice [6]) | serum BUN (hyperuricemia mice [7]) [mmol/L] | Compound | blood uric acid of hyperuricemia mice (hyperuricemia mice [1]; 7.8 mg/kg intragastric) [µmol] | OAT1 protein expression (Western blot, gray analysis) [2] | urine uric acid level (hyperuricemia mice [3]; 7.8 mg/kg) [µmol/L] | effect on body weight [4] | blood uric acid of hyperuricemia mice (hyperuricemia mice [1]; 5 mg/kg intragastric) [µmol] | urine uric acid level (hyperuricemia mice [3]; allopurinol group (5 mg/kg per method)) [µmol/L] | URAT1 protein expression level (ELISA, kidney) (URAT1) [pg/mL]
1 | – | – | – | – | CCc1oc2ccccc2c1C(=O)c1cc(Br)c(O)c(Br)c1 [benzbromarone] | 206 | increase the expression of OAT1 | 408 | – | – | – | –
2 | 1.42 | vesicular nephritis was observed | little effect on liver function | 4.74 | Oc1ncnc2[nH]ncc12 [allopurinol] | – | – | – | inhibited the weight increase of mice | 105 | 267 | 151.96
